# How the values were obtained:
# [1] = test system: MCF7; assay: Antiproliferative activity against human MCF7 cells assessed as reduction in cell viability by MTT assay; assay type: functional, cell-based
# [2] = test system: DU-145; assay: Antiproliferative activity against human DU-145 cells assessed as cell growth inhibition; assay type: functional, cell-based
# [3] = test system: PC-3; assay: Growth inhibition of human PC-3 cells assessed as reduction in cell viability by SRB assay; assay type: functional; settings: time 48 hrs
# [4] = test system: BXPC-3; assay: Antiproliferative activity against human BXPC-3 cells assessed as reduction in cell viability measured for 72 hrs by CCK-8 assay; assay type: functional, cell-based; settings: BXPC-3, 72 h
# [5] = test system: MIA PaCa-2; assay: Antiproliferative activity against human MIA PaCa-2 cells assessed as reduction in cell viability incubated for 24 hrs by CCK-8 assay; assay type: functional, cell-based; settings: MIA PaCa-2, 24 h
# [6] = molecular target: Spermine oxidase (Homo sapiens, UniProt Q9NWM0); assay: Inhibition of SMOX (unknown origin) using spermine as substrate preincubated for 1 hr followed by substrate addition and measured after 20 mins by luminometer analysis
# Chain of Spermine oxidase (Q9NWM0 whole entry): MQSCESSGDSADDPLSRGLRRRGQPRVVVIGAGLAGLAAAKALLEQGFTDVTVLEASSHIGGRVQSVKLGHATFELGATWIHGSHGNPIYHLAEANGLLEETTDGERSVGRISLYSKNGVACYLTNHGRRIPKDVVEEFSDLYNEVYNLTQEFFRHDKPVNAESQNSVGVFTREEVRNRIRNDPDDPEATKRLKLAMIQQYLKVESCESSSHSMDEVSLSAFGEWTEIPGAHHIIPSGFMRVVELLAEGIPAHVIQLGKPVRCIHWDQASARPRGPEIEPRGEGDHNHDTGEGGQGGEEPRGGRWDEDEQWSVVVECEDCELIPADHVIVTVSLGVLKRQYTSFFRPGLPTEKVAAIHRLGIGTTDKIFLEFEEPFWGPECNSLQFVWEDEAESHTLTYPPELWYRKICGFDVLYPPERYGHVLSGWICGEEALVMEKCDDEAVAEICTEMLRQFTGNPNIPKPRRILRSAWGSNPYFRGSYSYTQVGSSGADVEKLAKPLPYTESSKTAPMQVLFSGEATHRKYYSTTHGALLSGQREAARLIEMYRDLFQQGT
# [7] = molecular target: Lysine-specific histone demethylase 1A (Homo sapiens) (UniProt O60341); assay: Inhibition of LSD1 (unknown origin) at 10 uM relative to control
# [8] = test system: NCI-H1975; assay: Antiproliferative activity against human NCI-H1975 cells assessed as reduction in cell viability incubated for 48 hrs by MTT assay; settings: NCI-H1975, 48 h
# [9] = test system: SGC-7901; assay: cells; settings: Homo sapiens, SGC-7901, 72 h
# [10] = test system: MGC-803; assay: cells; settings: Homo sapiens, MGC-803, 72 h
# [11] = test system: BGC-823; assay: cells; settings: Homo sapiens, BGC-823, 72 h
# [12] = Inhibition of DCN1 (unknown origin) by TR-FRET analysis; set-up: species or system Homo sapiens
# [13] = test system: THP-1; assay: Antiproliferative activity against human THP-1 cells incubated for 24 hrs by trypan blue reagent based analysis; assay type: functional, cell-based; settings: THP-1, 24 h
# [14] = test system: MOLM-13; assay: Antiproliferative activity against human MOLM-13 assessed as reduction in cell growth incubated for 48 hrs by MTT assay; assay type: functional, cell-based; settings: MOLM-13, 48 h
# [15] = test system: Jurkat; assay: Antiproliferative activity against human Jurkat cells assessed as reduction in cell viability incubated for 48 hrs by cell titer-glo assay; assay type: functional, cell-based
# [16] = test system: K562; assay: Antiproliferative activity against human K562 assessed as reduction in cell growth incubated for 48 hrs by MTT assay; assay type: functional, cell-based; settings: K562, 48 h
# [17] = molecular target: T1, Histone-lysine N-methyltransferase EHMT2 (Homo sapiens, UniProt Q96KQ7); assay: Inhibition of human G9a expressed in HEK293 cells; assay type: cell-based
# T1 sequence (Q96KQ7 whole entry): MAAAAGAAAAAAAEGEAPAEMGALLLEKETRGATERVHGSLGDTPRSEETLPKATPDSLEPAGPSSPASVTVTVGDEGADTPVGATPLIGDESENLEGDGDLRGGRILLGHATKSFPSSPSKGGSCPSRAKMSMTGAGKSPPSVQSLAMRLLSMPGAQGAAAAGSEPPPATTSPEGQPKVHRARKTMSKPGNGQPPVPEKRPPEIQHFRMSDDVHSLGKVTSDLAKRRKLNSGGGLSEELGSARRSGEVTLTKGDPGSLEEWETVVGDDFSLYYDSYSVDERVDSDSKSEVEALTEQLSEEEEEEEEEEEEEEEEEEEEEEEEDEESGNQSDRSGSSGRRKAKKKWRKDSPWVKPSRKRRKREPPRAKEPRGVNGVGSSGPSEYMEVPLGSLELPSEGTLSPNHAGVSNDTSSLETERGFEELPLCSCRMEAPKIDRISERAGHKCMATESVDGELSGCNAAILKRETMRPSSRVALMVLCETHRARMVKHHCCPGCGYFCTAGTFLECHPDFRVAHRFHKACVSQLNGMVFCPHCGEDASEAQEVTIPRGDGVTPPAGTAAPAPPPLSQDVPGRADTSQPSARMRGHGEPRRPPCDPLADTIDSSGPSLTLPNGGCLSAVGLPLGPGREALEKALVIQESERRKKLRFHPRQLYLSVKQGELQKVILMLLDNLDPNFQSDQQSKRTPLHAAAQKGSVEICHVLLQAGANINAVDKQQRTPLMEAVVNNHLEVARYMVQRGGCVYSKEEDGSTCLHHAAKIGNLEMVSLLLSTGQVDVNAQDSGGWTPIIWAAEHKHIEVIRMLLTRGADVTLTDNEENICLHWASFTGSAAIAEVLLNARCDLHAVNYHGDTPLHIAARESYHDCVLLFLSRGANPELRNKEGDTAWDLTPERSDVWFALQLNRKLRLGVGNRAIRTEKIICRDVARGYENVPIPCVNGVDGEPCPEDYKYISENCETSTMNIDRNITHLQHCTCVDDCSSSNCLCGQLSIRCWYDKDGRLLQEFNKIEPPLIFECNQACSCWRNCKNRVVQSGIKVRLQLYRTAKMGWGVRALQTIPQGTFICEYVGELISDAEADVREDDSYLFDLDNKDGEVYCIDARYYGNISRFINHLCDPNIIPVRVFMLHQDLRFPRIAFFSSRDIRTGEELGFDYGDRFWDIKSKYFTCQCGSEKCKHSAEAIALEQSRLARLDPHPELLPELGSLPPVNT
compound,measurement,setting,value
CC/C(=C(/c1ccc(OCCN(C)C)cc1)c1ccc(OC(=O)N(C)CCN(C)C2CC2c2ccccc2)cc1)c1ccccc1 (stereo not drawn),IC50,[1],28.7 µM
C#CCN(C)Cc1cccc(NC(=O)CCCCCCC(=O)NO)c1,IC50,[2],0.42 µM
same,GI50,[3],0.33 µM
Nc1n[nH]c(NCc2c(Cl)cccc2Oc2ccc(-c3ccccc3)cc2)n1,IC50,[4],> 100 µM
same,IC50,[5],61.5 µM
same,IC50,[6],25.7 µM
same,inhibition,[7],52.1%
Cc1cc(Sc2nnnn2CCN(C)C)n2nc(SCc3ccc(Cl)cc3)nc2n1,IC50,[9],0.85 µM
same,IC50,[10],0.53 µM
same,IC50,[11],1 µM
same,IC50,[12],0.011 µM
O=C(NO)c1ccc(CN2CCC(CN[C@@H]3C[C@H]3c3ccccc3)CC2)cc1,IC50,[13],16.3 µM
same,IC50,[14],1.3 µM
same,IC50,[15],15.5 µM
same,IC50,[16],16.6 µM
COc1cc2nc(NCCCN(C)C)nc(NC3CCN(Cc4ccccc4)CC3)c2cc1OC,IC50,[17],0.778 µM
CN(C)CCCNc1nc(NC2CCN(Cc3ccccc3)CC2)c2ccccc2n1,IC50,[17],41.3 µM

# Source: ChEMBL document CHEMBL5335824, “Research progress of LSD1-based dual-target agents for cancer therapy” (Bioorg Med Chem, 2024)
